The text below walks through data of paper PMC5513743 (Journal of medical virology, 2017).

Read-outs that look alike come from different tables or passages of the source.

Data set [1] concerns HCV replicon cell line AVA5 (sub-genomic (CON1), genotype 1b). As to the kind of experiment: microbe, parasite or virus in culture. To be noted: Hepatitis C virus, GETYPE1B, Ava5, read-out: EC50 (μM) (individual agent).
In a further data set the test system is patient derived HCV. As to the kind of experiment: microbe, parasite or virus in culture. In kind it is cell-based, hepatitis C virus. To be noted: for IC50: Hepatitis C virus, in Homo sapiens.
For data set [2], the system named is HCV replicon H/FL-Neo (genotype 1a (H77), full length construct). To be noted: HCV genotype 1A replicon.
Data set [3] deals with HCV replicon cell line AVA5 (sub-genomic (CON1), genotype 1b).
For the next data set, the system named is replicon cell line AVA5. The settings on record: Table 2; SB 9200 monotherapy.
Data set [4] deals with fused THP-1/Huh7 derivative cells. To be noted: capture fusion assay, data not shown.
The test system of another data set is HCV. To be noted: SAD and MAD seven-day Phase I study, chronic HCV patients; ref Thompson AJ, 2015; cited from earlier work.
Data set [5] is described as follows: in vitro.
Data set [6] in a line: in vitro. The settings on record: human.

As to `NC(=O)c1ncn([C@@H]2O[C@H](CO)[C@@H](O)[C@H]2O)n1` [Ribavirin], the half-maximal effective concentration (EC50) in data set [1] is more than 30 µM.

As to `CO[C@@H]1[C@H](OP(=O)(OC[C@H]2O[C@@H](n3cnc4c(N)ncnc43)C[C@@H]2O)SCOC(=O)OC(C)C)[C@@H](CO)O[C@H]1n1ccc(=O)[nH]c1=O` (stereo partly shown) [SB 9200], in the data set on patient derived HCV (Genotypes 1,2,3,4, and 6 patient derived HCV), the “inhibition of HCV replication” value was “inhibited replication of all the genotypes tested in a dose-dependent manner”. Besides, the IC50 was determined as 220 ± 76 nM in the data set on patient derived HCV (G1 strains, patient derived HCV) and 35 ± 13 nM in the data set with patient derived HCV (G3 isolates, patient derived HCV). Also, the “difference in activity (IC50) against pre- and post treatment quasi-species” value with patient derived HCV (g3 patient who failed SOF/DAC/RBV, NS5A RAS S62L and Y93H enriched) is “No significant difference”. The “antiviral activity (fold change in HCV RNA from non-treated controls)” value in the data set with patient derived HCV (single dose 0.1μM, G3 SVR and NR samples after DAA treatment) is “demonstrated antiviral activity”. The “S.I. (CC50/EC50)” value is more than 45 in [2]; more than 100 in [3] (HCV genotype 1B replicon); more than 100 in data set [3] (Table 2, SB 9200 monotherapy). Further, the CC50 in the data set with replicon cell line AVA5, in the data set “in vitro [5]” and in “in vitro [6]” was more than 100 µM each time. The Cell viability result in data set [4] is reported as “not affected”. The safety and tolerability result with HCV is “safe, well tolerated”.

As for `C/C=C/C[C@@H](C)[C@@H](O)[C@H]1C(=O)N[C@@H](CC)C(=O)N(C)[C@H](C)C(=O)N(CC)[C@@H](C(C)C)C(=O)N[C@@H](C(C)C)C(=O)N(C)[C@@H](CC(C)C)C(=O)N[C@@H](C)C(=O)N[C@H](C)C(=O)N(C)[C@@H](CC(C)C)C(=O)N(C)[C@@H](CC(C)C)C(=O)N(C)[C@@H](C(C)C)C(=O)N1C` [alisporivir, reference compound], the half-maximal inhibitory concentration (IC50) in the data set with patient derived HCV (G1 patient derived samples) was 99 nM; in the data set with patient derived HCV (G3 patient derived samples), 36 nM.

One may read the EC50 as the concentration at which the effect is half-maximal. As usually defined, the IC50 is the concentration that gives 50% inhibition. A low value points to inhibition by little substance.
